Experimental data published in ChEMBL document CHEMBL5113438, “Discovery of highly potent and selective CRBN-recruiting EGFRL858R/T790M degraders in vivo” (Eur J Med Chem, 2022).

Legend:
[1] = tested on: NCI-H1975; experiment: Antiproliferative activity against human NCI-H1975 cells expressing EGFR L858R/T790M incubated for 72 hrs by CCK-8 assay; format: functional, cell-based; conditions: NCI-H1975, 72 h
[2] = tested on: A549; experiment: Antiproliferative activity against human A549 cells expressing wild type EGFR incubated for 72 hrs by CCK-8 assay; format: functional, cell-based; conditions: A549, 72 h
[3] = tested on: NCI-H1299; experiment: Antiproliferative activity against human NCI-H1299 cells expressing wild type EGFR incubated for 72 hrs by CCK-8 assay; format: functional, cell-based; conditions: NCI-H1299, 72 h
[4] = tested on: HCC827; experiment: Antiproliferative activity against human NCI-HCC827 cells expressing EGFR del19 incubated for 72 hrs by CCK-8 assay; format: functional, cell-based; conditions: HCC827, 72 h
[5] = Selectivity ratio IC50 for human NCI-H1299 cells expressing wild type EGFR to human NCI-H1975 cells expressing EGFR L858R/T790M; format: functional
[6] = tested on: NCI-H1975; experiment: Induction of apoptosis in human NCI-H1975 cells assessed as late apoptotic cells at 0.1 uM incubated for 48 hrs by AnnexinV-FITC/propidium iodide staining based flow cytometry analysis (reference value: 1.35 % ); format: functional
[7] = tested on: NCI-H1975; experiment: Induction of apoptosis in human NCI-H1975 cells assessed as viable cells at 0.1 uM incubated for 48 hrs by AnnexinV-FITC/propidium iodide staining based flow cytometry analysis (reference value: 96.2 % ); format: functional; conditions: read-out: Activity
[8] = tested on: NCI-H1975; experiment: Induction of apoptosis in human NCI-H1975 cells assessed as viable cells at 1.0 uM incubated for 48 hrs by AnnexinV-FITC/propidium iodide staining based flow cytometry analysis (reference value: 96.2 % ); format: functional; conditions: read-out: Activity
[9] = tested on: NCI-H1299; experiment: Induction of apoptosis in human NCI-H1299 cells assessed as viable cells at 1.0 uM incubated for 48 hrs by AnnexinV-FITC/propidium iodide staining based flow cytometry analysis (reference value: 98.05 % ); format: functional; conditions: read-out: Activity
[10] = tested on: NCI-H1975; experiment: Induction of apoptosis in human NCI-H1975 cells assessed as necrotic cells at 1.0 uM incubated for 48 hrs by AnnexinV-FITC/propidium iodide staining based flow cytometry analysis (reference value: 3.28 % ); format: functional
[11] = tested on: NCI-H1299; experiment: Induction of apoptosis in human NCI-H1299 cells assessed as early apoptotic cells at 1.0 uM incubated for 48 hrs by AnnexinV-FITC/propidium iodide staining based flow cytometry analysis (reference value: 0.11 % ); format: functional
[12] = tested on: NCI-H1975; experiment: Induction of apoptosis in human NCI-H1975 cells assessed as early apoptotic cells at 1.0 uM incubated for 48 hrs by AnnexinV-FITC/propidium iodide staining based flow cytometry analysis (reference value: 0.11 % ); format: functional
[13] = tested on: NCI-H1299; experiment: Induction of apoptosis in human NCI-H1299 cells assessed as viable cells at 0.1 uM incubated for 48 hrs by AnnexinV-FITC/propidium iodide staining based flow cytometry analysis (reference value: 98.05 % ); format: functional; conditions: read-out: Activity
[14] = tested on: NCI-H1299; experiment: Induction of apoptosis in human NCI-H1299 cells assessed as necrotic cells at 1.0 uM incubated for 48 hrs by AnnexinV-FITC/propidium iodide staining based flow cytometry analysis (reference value: 0.24 % ); format: functional
[15] = tested on: NCI-H1975; experiment: Induction of apoptosis in human NCI-H1975 cells assessed as early apoptotic cells at 0.1 uM incubated for 48 hrs by AnnexinV-FITC/propidium iodide staining based flow cytometry analysis (reference value: 0.11 % ); format: functional
[16] = Plasma protein binding in rat assessed as unbound fraction at 1 uM incubated for 4 hrs by rapid equilibrium dialysis method; format: ADME, cell-free; conditions: read-out: PPB (converted)
[17] = tested on: NCI-H1299; experiment: Induction of apoptosis in human NCI-H1299 cells assessed as late apoptotic cells at 1.0 uM incubated for 48 hrs by AnnexinV-FITC/propidium iodide staining based flow cytometry analysis (reference value: 1.53 % ); format: functional
[18] = tested on: NCI-H1975; experiment: Induction of apoptosis in human NCI-H1975 cells assessed as necrotic cells at 0.1 uM incubated for 48 hrs by AnnexinV-FITC/propidium iodide staining based flow cytometry analysis (reference value: 3.28 % ); format: functional
[19] = tested on: NCI-H1299; experiment: Induction of apoptosis in human NCI-H1299 cells assessed as early apoptotic cells at 0.1 uM incubated for 48 hrs by AnnexinV-FITC/propidium iodide staining based flow cytometry analysis (reference value: 0.11 % ); format: functional
[20] = tested on: NCI-H1299; experiment: Induction of apoptosis in human NCI-H1299 cells assessed as necrotic cells at 0.1 uM incubated for 48 hrs by AnnexinV-FITC/propidium iodide staining based flow cytometry analysis (reference value: 0.24 % ); format: functional
[21] = tested on: NCI-H1299; experiment: Induction of apoptosis in human NCI-H1299 cells assessed as late apoptotic cells at 0.1 uM incubated for 48 hrs by AnnexinV-FITC/propidium iodide staining based flow cytometry analysis (reference value: 1.53 % ); format: functional
[22] = tested on: NCI-H1975; experiment: Induction of apoptosis in human NCI-H1975 cells assessed as late apoptotic cells at 1.0 uM incubated for 48 hrs by AnnexinV-FITC/propidium iodide staining based flow cytometry analysis (reference value: 1.35 % ); format: functional
[23] = biological target: von Hippel-Lindau disease tumor suppressor/Epidermal growth factor receptor (Homo sapiens, UniProt P00533+P40337, L858R/T790M); experiment: Protac activity at VHL/EGFR L858R/T790M mutant in human NCI-H1975 cells assessed as induction of degradation of EGFR incubated for 24 hrs in presence of afatinib by immunoblot analysis; format: cell-based
[24] = tested on: BaF3; experiment: Antiproliferative activity against mouse BaF3 harbouring EGFR L858R/T790M/C797S mutant assessed as inhibition of cell growth incubated for 72 hrs by MTS assay; format: functional, cell-based; conditions: BaF3, 72 h
[25] = tested on: BaF3; experiment: Antiproliferative activity against mouse BaF3 harbouring EGFR L858R/T790M mutant assessed as inhibition of cell growth incubated for 72 hrs by MTS assay; format: functional, cell-based; conditions: BaF3, 72 h
[26] = tested on: BaF3; experiment: Antiproliferative activity against mouse BaF3 harbouring EGFR L858R/T790M/L718Q mutant assessed as inhibition of cell growth incubated for 72 hrs by MTS assay; format: functional, cell-based; conditions: BaF3, 72 h

Sequence of von Hippel-Lindau disease tumor suppressor/Epidermal growth factor receptor (P00533 25-1210 T790M/L858R limits assumed, stated change not applied): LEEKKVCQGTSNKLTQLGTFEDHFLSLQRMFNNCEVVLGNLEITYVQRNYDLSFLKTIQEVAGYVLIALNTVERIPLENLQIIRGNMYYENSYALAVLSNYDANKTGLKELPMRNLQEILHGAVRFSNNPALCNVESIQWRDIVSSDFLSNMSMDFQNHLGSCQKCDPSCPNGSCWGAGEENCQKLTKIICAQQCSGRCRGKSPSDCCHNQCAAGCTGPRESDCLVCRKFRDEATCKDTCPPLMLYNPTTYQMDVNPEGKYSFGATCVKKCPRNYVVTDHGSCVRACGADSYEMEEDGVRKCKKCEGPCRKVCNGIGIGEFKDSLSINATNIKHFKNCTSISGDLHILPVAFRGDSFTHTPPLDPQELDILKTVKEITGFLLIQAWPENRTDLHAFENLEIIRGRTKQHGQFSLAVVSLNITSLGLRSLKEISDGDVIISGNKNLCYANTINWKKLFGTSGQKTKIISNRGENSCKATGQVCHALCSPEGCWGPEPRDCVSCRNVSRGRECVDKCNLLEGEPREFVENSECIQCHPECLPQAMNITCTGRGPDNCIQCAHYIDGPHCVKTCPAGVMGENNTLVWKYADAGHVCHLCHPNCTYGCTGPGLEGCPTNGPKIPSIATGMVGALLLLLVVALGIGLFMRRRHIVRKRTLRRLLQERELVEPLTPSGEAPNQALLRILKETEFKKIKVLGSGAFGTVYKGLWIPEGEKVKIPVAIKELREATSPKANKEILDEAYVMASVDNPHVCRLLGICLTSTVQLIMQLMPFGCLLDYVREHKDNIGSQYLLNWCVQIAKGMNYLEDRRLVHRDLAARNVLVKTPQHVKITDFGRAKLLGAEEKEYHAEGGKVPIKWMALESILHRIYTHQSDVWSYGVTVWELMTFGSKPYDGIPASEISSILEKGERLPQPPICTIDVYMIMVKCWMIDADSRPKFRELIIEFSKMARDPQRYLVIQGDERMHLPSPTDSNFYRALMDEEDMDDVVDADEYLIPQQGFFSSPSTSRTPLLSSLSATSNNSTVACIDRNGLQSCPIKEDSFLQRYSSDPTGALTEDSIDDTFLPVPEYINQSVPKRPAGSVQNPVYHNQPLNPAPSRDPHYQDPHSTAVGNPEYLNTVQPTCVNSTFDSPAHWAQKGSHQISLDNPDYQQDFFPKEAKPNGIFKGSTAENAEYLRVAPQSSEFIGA
Sequence of von Hippel-Lindau disease tumor suppressor/Epidermal growth factor receptor (P40337 whole entry, stated change not applied): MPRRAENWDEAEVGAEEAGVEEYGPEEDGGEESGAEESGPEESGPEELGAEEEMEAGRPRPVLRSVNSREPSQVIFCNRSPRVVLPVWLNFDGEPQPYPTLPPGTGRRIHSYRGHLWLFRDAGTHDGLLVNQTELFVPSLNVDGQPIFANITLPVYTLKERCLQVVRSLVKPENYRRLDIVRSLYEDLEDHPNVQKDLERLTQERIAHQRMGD

C#CCN(CCCCCCCCC(=O)Nc1cccc2c1CN(C1CCC(=O)NC1=O)C2=O)CCN(C)c1cc(OC)c(Nc2nccc(-c3cn(C)c4ccccc34)n2)cc1NC(=O)C=C (stereo unspecified)
IC50 [1]: 3.23 µM | IC50 [2]: > 100 µM | IC50 [3]: > 100 µM | IC50 [4]: 1.16 µM | Ratio IC50 [5]: 31

C=CC(=O)Nc1cc(Nc2nccc(-c3cn(C)c4ccccc34)n2)c(OC)cc1N(C)CCN(C)C [OSIMERTINIB]
Activity [6]: 3.83% | viability at 0.1 µM [7]: 90.1% | viability at 1 µM [8]: 56.4% | viability at 1 µM [9]: 97.3% | Activity [10]: 7.27% | Activity [11]: 0.075% | IC50 [1]: […] | IC50 [2]: 0.445 µM | Activity [12]: 1.7% | viability at 0.1 µM [13]: 98.2% | Activity [14]: 0.5% | Activity [15]: 0.14% | fraction unbound at 4 h, 1 µM [16]: 0.0133 | Activity [17]: 2.14% | IC50 [3]: 3.24 µM | IC50 [4]: 0.00248 µM | Activity [18]: 6.89% | Ratio IC50 [5]: […] | Activity [19]: 0.08% | Activity [20]: 0.34% | Activity [21]: 1.37% | Activity [22]: 34.7%

C#CCN(CCCCCCCCCC(=O)Nc1cccc2c1CN(C1CCC(=O)NC1=O)C2=O)CCN(C)c1cc(OC)c(Nc2nccc(-c3cn(C)c4ccccc34)n2)cc1NC(=O)C=C (stereo unspecified)
IC50 [1]: 6.8 µM | IC50 [2]: > 100 µM | IC50 [3]: > 100 µM | IC50 [4]: 2.65 µM | Ratio IC50 [5]: 14

C#CCN(CCCCCCC(=O)Nc1cccc2c1CN(C1CCC(=O)NC1=O)C2=O)CCN(C)c1cc(OC)c(Nc2nccc(-c3cn(C)c4ccccc34)n2)cc1NC(=O)C=C (stereo unspecified)
IC50 [1]: 1.11 µM | IC50 [2]: > 100 µM | IC50 [3]: > 100 µM | IC50 [4]: 0.358 µM | Ratio IC50 [5]: 90

C#CCN(CCCCC(=O)Nc1cccc2c1CN(C1CCC(=O)NC1=O)C2=O)CCN(C)c1cc(OC)c(Nc2nccc(-c3cn(C)c4ccccc34)n2)cc1NC(=O)C=C (stereo unspecified)
IC50 [1]: 1.02 µM | IC50 [2]: > 100 µM | IC50 [3]: > 100 µM | IC50 [4]: 0.309 µM | Ratio IC50 [5]: 98

Cc1ccsc1-c1ccc(CNC(=O)[C@@H]2C[C@@H](O)CN2C(=O)[C@@H](NC(=O)CCCCCOCCCCOCCCCOc2cc3ncnc(Nc4ccc(F)c(Cl)c4)c3cc2NC(=O)/C=C/CN(C)C)C(C)(C)C)cc1
EC50 [23]: 0.216 µM

C#CCN(CCCCCC(=O)Nc1cccc2c1CN(C1CCC(=O)NC1=O)C2=O)CCN(C)c1cc(OC)c(Nc2nccc(-c3cn(C)c4ccccc34)n2)cc1NC(=O)C=C (stereo unspecified)
IC50 [1]: 3.56 µM | IC50 [2]: > 100 µM | IC50 [3]: > 100 µM | IC50 [4]: 0.649 µM | Ratio IC50 [5]: 28

C#CCN(CCCCCCCC(=O)Nc1cccc2c1CN(C1CCC(=O)NC1=O)C2=O)CCN(C)c1cc(OC)c(Nc2nccc(-c3cn(C)c4ccccc34)n2)cc1NC(=O)C=C (stereo unspecified)
IC50 [1]: 1.36 µM | IC50 [2]: > 100 µM | IC50 [3]: > 100 µM | IC50 [4]: 0.457 µM | Ratio IC50 [5]: 74

O=C1CCC(N2C(=O)c3cccc(NCCOCCOCCOCCN4CCN(c5ccc(-c6ccc7c(c6)C(=O)N(C(C(=O)Nc6nccs6)c6ccccc6)C7)cn5)CC4)c3C2=O)C(=O)N1 (stereo unspecified)
IC50 [24]: 0.041 µM | IC50 [25]: 0.05 µM | IC50 [26]: 0.028 µM
